Like-named read-outs stand apart in the source and are kept apart here.
Legend:
Test in all cases: cells
Format in all cases: cell-based
[1] = system: IGROV-ET; conditions: Homo sapiens
How it was run: (§1)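 Continuous 48 h drug exposure of attached human cancer cells (5×10^3/well, RPMI 1640, 10% FBS), doses 10 to 10^−8 μg/ml. Endpoint is SRB staining after TCA fixation, read at 490 nm. GI, TGI and LC calculated from triplicate means.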

[2] = system: MEL-28; conditions: Homo sapiens
How it was run: as §1

[3] = system: K562; conditions: Homo sapiens
How it was run: as §1

[4] = system: HELA; conditions: for GI50 / CC50: Homo sapiens
How it was run: as §1

[5] = system: LOVO; conditions: Homo sapiens
How it was run: as §1

[6] = system: DU145; conditions: Homo sapiens
How it was run: as §1

[7] = system: SK-BR3; conditions: Homo sapiens
How it was run: as §1

[8] = system: HT29
How it was run: as §1

[9] = system: LNCAP; conditions: Homo sapiens
How it was run: as §1

[10] = system: A549; conditions: for GI50: read-out: GI50
How it was run: as §1

[11] = system: PANC-1; conditions: Homo sapiens
How it was run: as §1

[12] = system: HELA-APL; conditions: for GI50 / CC50: Homo sapiens
How it was run: as §1

[13] = system: LOVO-DOX; conditions: Homo sapiens
How it was run: as §1

[14] = system: IGROV; conditions: Homo sapiens
How it was run: as §1

[15] = 48 h, IGROV-ET, 48 hours exposure, SRB
[16] = SK-MEL-28, 48 h, MEL-28, 48 hours exposure, SRB
[17] = K562, 48 h, K562, 48 hours exposure, SRB
[18] = LoVo, 48 h, 48 hours exposure, SRB
[19] = DU-145, 48 h, DU145, 48 hours exposure, SRB
[20] = SK-BR-3, 48 h, SK-BR3, 48 hours exposure, SRB
[21] = LNCaP, 48 h, 48 hours exposure, SRB
[22] = PANC-1, 48 h, PANC-1, 48 hours exposure, SRB
[23] = HELA-APL, 48 hours exposure, SRB
[24] = 48 h, LOVO-DOX, 48 hours exposure, SRB
[25] = Homo sapiens, HT-29, 48 h, HT29, 48 hours exposure, SRB

COc1c(C)cc2c(c1O)[C@@H]1C3[C@@H]4SC[C@]5(C(=O)COC[C@@H](c6c7c(c(C)c(OC(C)=O)c64)OCO7)N3[C@@H](C#N)[C@H](C2)N1C)c1[nH]c2ccccc2c1CCN5C (stereo partly drawn) [Compound 14]
GI50 [1, 15]: 569 nM
IC (TGI) [1, 15]: 1300 nM
CC50 ([1]; IGROV-ET, 48 hours exposure, SRB, read-out: LC50 (the source's name)): 12900 nM
GI50 [2, 16]: 198 nM
IC (TGI) [2, 16]: 519 nM
CC50 ([2]; SK-MEL-28, MEL-28, 48 hours exposure, SRB, read-out: LC50 (the source's name)): 2370 nM
GI50 [3, 17]: 44.7 nM
IC (TGI) [3, 17]: 174 nM
CC50 ([3]; K562, 48 hours exposure, SRB, read-out: LC50 (the source's name)): 1290 nM
TGI ([4]; HELA, 48 hours exposure, SRB): 3.10E−07 Molar
GI50 ([4]; HELA, 48 hours exposure, SRB): 114 nM
CC50 ([4]; HELA, 48 hours exposure, SRB, read-out: LC50 (the source's name)): 810 nM
GI50 [5, 18]: 141 nM
IC (TGI) [5, 18]: 393 nM
CC50 ([5]; LOVO, 48 hours exposure, SRB, read-out: LC50 (the source's name)): 1100 nM
GI50 [6, 19]: 94.6 nM
IC (TGI) [6, 19]: 1390 nM
CC50 ([6]; DU-145, DU145, 48 hours exposure, SRB, read-out: LC50 (the source's name)): 12900 nM
GI50 [7, 20]: 217 nM
IC (TGI) [7, 20]: 537 nM
CC50 ([7]; SK-BR-3, SK-BR3, 48 hours exposure, SRB, read-out: LC50 (the source's name)): 1620 nM
GI50 ([8]; HT29, 48 hours exposure, SRB): 418 nM
TGI ([8]; HT29, 48 hours exposure, SRB): 1.59E−06 Molar
CC50 ([8]; HT29, 48 hours exposure, SRB, read-out: LC50 (the source's name)): 12900 nM
GI50 [9, 21]: 61.2 nM
IC (TGI) [9, 21]: 177 nM
CC50 ([9]; LNCAP, 48 hours exposure, SRB, read-out: LC50 (the source's name)): 535 nM
TGI ([10]; A549, 48 hours exposure, SRB): 8.25E−07 Molar
GI50 ([10]; A549, 48 hours exposure, SRB): 264 nM
CC50 ([10]; A549, 48 hours exposure, SRB, read-out: LC50 (the source's name)): 6860 nM
GI50 [11, 22]: 276 nM
IC (TGI) [11, 22]: 825 nM
CC50 ([11]; PANC-1, 48 hours exposure, SRB, read-out: LC50 (the source's name)): 12900 nM
TGI [12, 23]: 4.88E−07 Molar
GI50 ([12]; 48 h): 243 nM
CC50 ([12]; HELA-APL, 48 hours exposure, SRB, read-out: LC50 (the source's name)): 980 nM
GI50 [13, 24]: 584 nM
IC (TGI) [13, 24]: 3840 nM
CC50 ([13]; LOVO-DOX, 48 hours exposure, SRB, read-out: LC50 (the source's name)): 12900 nM
GI50 ([14]; 48 h, 48 hours exposure, SRB): 226 nM
IC (TGI) ([14]; 48 h, 48 hours exposure, SRB): 744 nM
CC50 ([14]; 48 hours exposure, SRB, read-out: LC50 (the source's name)): 5140 nM

COc1c(C)cc2c(c1O)[C@@H]1C3[C@@H]4SC[C@]5(NCCc6c5[nH]c5ccccc65)C(=O)COC[C@@H](c5c6c(c(C)c(OC(=O)C(F)(F)C(F)(F)C(F)(F)F)c54)OCO6)N3[C@@H](C#N)[C@H](C2)N1C (stereo partly drawn) [Compound 51]
GI50 [1, 15]: 263 nM
IC (TGI) [1, 15]: 7470 nM
CC50 ([1]; 48 h, read-out: LC50): 11200 nM
GI50 [2, 16]: 28.4 nM
IC (TGI) [2, 16]: 50.3 nM
CC50 ([2]; SK-MEL-28, 48 h, read-out: LC50): 89.3 nM
GI50 [3, 17]: 16.5 nM
IC (TGI) [3, 17]: 46.2 nM
CC50 ([3]; K562, 48 h, read-out: LC50): 114 nM
TGI ([4]; HELA, 48 hours exposure, SRB): 4.85E−08 Molar
CC50 ([4]; HeLa, 48 h, read-out: LC50): 98 nM
GI50 ([4]; HELA, 48 hours exposure, SRB): 24 nM
GI50 [5, 18]: 21.1 nM
IC (TGI) [5, 18]: 38.8 nM
CC50 ([5]; LoVo, 48 h, read-out: LC50): 71 nM
GI50 [6, 19]: 48.3 nM
IC (TGI) [6, 19]: 323 nM
CC50 ([6]; DU-145, 48 h, read-out: LC50): 11200 nM
GI50 [7, 20]: 39.8 nM
IC (TGI) [7, 20]: 99.3 nM
CC50 ([7]; SK-BR-3, 48 h, read-out: LC50): 3110 nM
GI50 [8, 25]: 38.2 nM
IC (TGI) [8, 25]: 1310 nM
CC50 ([8]; Homo sapiens, HT-29, 48 h, read-out: LC50, HT29, 48 hours exposure, SRB): 11100 nM
GI50 [9, 21]: 13.1 nM
IC (TGI) [9, 21]: 27 nM
CC50 ([9]; LNCaP, 48 h, read-out: LC50): 54.8 nM
GI50 ([10]; Homo sapiens, A549, 48 h, A549, 48 hours exposure, SRB): 26.7 nM
IC (TGI) ([10]; Homo sapiens, A549, 48 h, A549, 48 hours exposure, SRB, read-out: TGI): 61.1 nM
CC50 ([10]; Homo sapiens, A549, 48 h, read-out: LC50, A549, 48 hours exposure, SRB): 1290 nM
GI50 [11, 22]: 41.9 nM
IC (TGI) [11, 22]: 133 nM
CC50 ([11]; PANC-1, 48 h, read-out: LC50): 2000 nM
TGI [12, 23]: 4.97E−08 Molar
GI50 ([12]; 48 h): 29.1 nM
CC50 ([12]; 48 h, read-out: LC50): 84.6 nM
GI50 [13, 24]: 381 nM
IC (TGI) [13, 24]: 3090 nM
CC50 ([13]; 48 h, read-out: LC50): 11200 nM
GI50 ([14]; 48 h, 48 hours exposure, SRB): 32.3 nM
IC (TGI) ([14]; 48 h, 48 hours exposure, SRB): 63.3 nM
CC50 ([14]; 48 h, read-out: LC50): 3550 nM

Source: patent publication US7763615B2, “Ecteinascidin analogs for use as antitumour agents” (priority 2001, dated 2010)
